Values of other authors in paper PMC8513935.

Columns and labels:
[1] = derived by the authors as gas->solvent minus gas->water (a hypothetical dry solvent; the ESI), not a two-phase measurement
[2] = experimental, compiled by the authors from the literature (the ESI cites the sources)
[3] = log P octanol/water from commercial databases, averaged (the ESI); details: Octanol (wet), 25 C

For `CC(C)c1ccccc1`, the log K of transfer, water to solvent ([1]; Acetone, 25 C) is given as 4.1 log10 K, the log K of transfer, water to solvent ([1]; Hexadecane, 25 C) is given as 3.86 log10 K and the log K of transfer, water to solvent ([1]; Methanol, 25 C) is given as 3.58 log10 K. The log K of transfer, water to solvent ([1]; Octan-1-ol(dry), 25 C) was 3.76 log10 K, the log K of transfer, water to solvent ([1]; Propan-2-ol, 25 C) was 3.57 log10 K and the log K of transfer, water to solvent ([1]; Tetrahydrofuran, 25 C) was 4.55 log10 K. The log K of transfer, gas to solvent ([2]; Hexadecane, 25 C) was 4.08 log10 K, the log K of transfer, gas to solvent ([2]; Methanol, 25 C) was 3.8 log10 K and the log K of transfer, gas to solvent ([2]; Octan-1-ol, 25 C) was 3.98 log10 K. For the same compound, the log K of transfer, gas to solvent ([2]; Propan-2-ol, 25 C) was 3.79 log10 K, the log K of transfer, gas to solvent ([2]; Propanone, 25 C) was 4.32 log10 K and the log K of transfer, gas to solvent ([2]; Tetrahydrofuran, 25 C) was 4.77 log10 K. For the same compound, the log K of transfer, gas to solvent ([2]; Water, 25 C) was 0.22 log10 K and the log K of transfer, water to solvent [3] was 3.66 log10 K.
In the case of `CCCCCC`, the log K of transfer, gas to solvent ([2]; 1,2-Dichloroethane, 25 C) is listed as 2.51 log10 K, the log K of transfer, gas to solvent ([2]; 2-Methylpropan-1-ol, 25 C) is listed as 2.46 log10 K and the log K of transfer, gas to solvent ([2]; 2-Methylpropan-2-ol, 25 C) is listed as 2.44 log10 K. For the same compound, the log K of transfer, gas to solvent ([2]; 3-Methylbutan-1-ol, 25 C) was 2.39 log10 K, the log K of transfer, gas to solvent ([2]; Acetonitrile, 25 C) was 1.96 log10 K and the log K of transfer, gas to solvent ([2]; Benzene, 25 C) was 2.65 log10 K. For the same compound, the log K of transfer, gas to solvent ([2]; Butan-1-ol, 25 C) was 2.44 log10 K, the log K of transfer, gas to solvent ([2]; Butanone, 25 C) was 2.52 log10 K and the log K of transfer, gas to solvent ([2]; Butyronitrile, 25 C) was 2.34 log10 K. The log K of transfer, gas to solvent ([2]; CCl4, 25 C) was 2.98 log10 K, the log K of transfer, gas to solvent ([2]; Chlorobenzene, 25 C) was 2.95 log10 K and the log K of transfer, gas to solvent ([2]; Chloroform, 25 C) was 2.87 log10 K. The log K of transfer, gas to solvent ([2]; Cyclohexanone, 25 C) was 2.44 log10 K, the log K of transfer, gas to solvent ([2]; Di-n-butyl ether, 25 C) was 2.82 log10 K and the log K of transfer, gas to solvent ([2]; Dichloromethane, 25 C) was 2.75 log10 K. The log K of transfer, gas to solvent ([2]; Ethanol, 25 C) was 2.24 log10 K, the log K of transfer, gas to solvent ([2]; Heptan-1-ol, 25 C) was 2.44 log10 K and the log K of transfer, gas to solvent ([2]; Hexadecane, 25 C) was 2.67 log10 K. For the same compound, the log K of transfer, gas to solvent ([2]; Hexan-1-ol, 25 C) was 2.48 log10 K, the log K of transfer, gas to solvent ([2]; Hexane, 25 C) was 2.97 log10 K and the log K of transfer, gas to solvent ([2]; Methanol, 25 C) was 2.05 log10 K. For the same compound, the log K of transfer, gas to solvent ([2]; Octan-1-ol, 25 C) was 2.44 log10 K, the log K of transfer, gas to solvent ([2]; Pentan-1-ol, 25 C) was 2.44 log10 K and the log K of transfer, gas to solvent ([2]; Perfluoroalkane, 25 C) was 1.88 log10 K. The log K of transfer, gas to solvent ([2]; Propan-1-ol, 25 C) was 2.28 log10 K, the log K of transfer, gas to solvent ([2]; Propan-2-ol, 25 C) was 2.3 log10 K and the log K of transfer, gas to solvent ([2]; Propanone, 25 C) was 2.37 log10 K. For the same compound, the log K of transfer, gas to solvent ([2]; Propionitrile, 25 C) was 2.22 log10 K, the log K of transfer, gas to solvent ([2]; Tetrahydrofuran, 25 C) was 2.84 log10 K and the log K of transfer, gas to solvent ([2]; Toluene, 25 C) was 2.82 log10 K. For the same compound, the log K of transfer, gas to solvent ([2]; Water, 25 C) was -1.82 log10 K and the log K of transfer, water to solvent [3] was 3.9 log10 K.
In the case of `CCCNCCC`, the log K of transfer, water to solvent ([1]; Benzene, 25 C) is given as 1.05 log10 K, the log K of transfer, water to solvent ([1]; Hexadecane, 25 C) is given as 0.671 log10 K and the log K of transfer, water to solvent ([1]; Toluene, 25 C) is given as 1.16 log10 K. For the same compound, the log K of transfer, gas to solvent ([2]; Benzene, 25 C) was 3.73 log10 K, the log K of transfer, gas to solvent ([2]; Hexadecane, 25 C) was 3.35 log10 K and the log K of transfer, gas to solvent ([2]; Toluene, 25 C) was 3.84 log10 K. The log K of transfer, gas to solvent ([2]; Water, 25 C) was 2.68 log10 K and the log K of transfer, water to solvent [3] was 1.67 log10 K.
In the case of `Cc1cccc(C)n1`, the log K of transfer, water to solvent ([1]; Benzene, 25 C) is listed as 1.32 log10 K, the log K of transfer, water to solvent ([1]; Chloroform, 25 C) is listed as 2.31 log10 K and the log K of transfer, water to solvent ([1]; Cyclohexane, 25 C) is listed as 0.67 log10 K. The log K of transfer, water to solvent ([1]; Hexadecane, 25 C) was 0.39 log10 K, the log K of transfer, gas to solvent ([2]; Benzene, 25 C) was 4.69 log10 K and the log K of transfer, gas to solvent ([2]; Chloroform, 25 C) was 5.68 log10 K. The log K of transfer, gas to solvent ([2]; Cyclohexane, 25 C) was 4.04 log10 K, the log K of transfer, gas to solvent ([2]; Hexadecane, 25 C) was 3.76 log10 K and the log K of transfer, gas to solvent ([2]; Water, 25 C) was 3.37 log10 K. The log K of transfer, water to solvent [3] was 1.68 log10 K.
For `C=CCCCCCC`, the log K of transfer, water to solvent ([1]; Butyronitrile, 25 C) is given as 4.72 log10 K, the log K of transfer, water to solvent ([1]; Hexadecane, 25 C) is given as 4.98 log10 K and the log K of transfer, water to solvent ([1]; Octan-1-ol(dry), 25 C) is given as 4.76 log10 K. The log K of transfer, water to solvent ([1]; Propionitrile, 25 C) was 4.73 log10 K, the log K of transfer, gas to solvent ([2]; Butyronitrile, 25 C) was 3.31 log10 K and the log K of transfer, gas to solvent ([2]; Hexadecane, 25 C) was 3.57 log10 K. The log K of transfer, gas to solvent ([2]; Octan-1-ol, 25 C) was 3.35 log10 K, the log K of transfer, gas to solvent ([2]; Propionitrile, 25 C) was 3.32 log10 K and the log K of transfer, gas to solvent ([2]; Water, 25 C) was -1.41 log10 K. For the same compound, the log K of transfer, water to solvent [3] was 4.57 log10 K.
In the case of `C/C=C/C`, the log K of transfer, water to solvent ([1]; Acetone, 25 C) is given as 2.79 log10 K, the log K of transfer, water to solvent ([1]; Hexadecane, 25 C) is given as 2.64 log10 K and the log K of transfer, gas to solvent ([2]; Hexadecane, 25 C) is given as 1.66 log10 K. For the same compound, the log K of transfer, gas to solvent ([2]; Propanone, 25 C) was 1.81 log10 K, the log K of transfer, gas to solvent ([2]; Water, 25 C) was -0.98 log10 K and the log K of transfer, water to solvent [3] was 2.31 log10 K.
In the case of `CCC(C)C`, the log K of transfer, water to solvent ([1]; 2-Methylpropan-2-ol, 25 C) is given as 3.63 log10 K, the log K of transfer, water to solvent ([1]; Cyclohexanone, 25 C) is given as 3.64 log10 K and the log K of transfer, water to solvent ([1]; Hexadecane, 25 C) is given as 3.76 log10 K. For the same compound, the log K of transfer, gas to solvent ([2]; 2-Methylpropan-2-ol, 25 C) was 1.88 log10 K, the log K of transfer, gas to solvent ([2]; Cyclohexanone, 25 C) was 1.89 log10 K and the log K of transfer, gas to solvent ([2]; Hexadecane, 25 C) was 2.01 log10 K. The log K of transfer, gas to solvent ([2]; Water, 25 C) was -1.75 log10 K and the log K of transfer, water to solvent [3] was 3.19 log10 K.
In the case of `c1ccccc1`, the log K of transfer, water to solvent ([1]; 1,2-Dichloroethane, 25 C) is given as 2.69 log10 K, the log K of transfer, water to solvent ([1]; 2-Methylpropan-1-ol, 25 C) is given as 2.09 log10 K and the log K of transfer, water to solvent ([1]; 2-Methylpropan-2-ol, 25 C) is given as 2.09 log10 K. The log K of transfer, water to solvent ([1]; Acetone, 25 C) was 2.58 log10 K, the log K of transfer, water to solvent ([1]; Acetonitrile, 25 C) was 2.43 log10 K and the log K of transfer, water to solvent ([1]; Benzene, 25 C) was 2.71 log10 K. For the same compound, the log K of transfer, water to solvent ([1]; Butan-1-ol, 25 C) was 2.24 log10 K, the log K of transfer, water to solvent ([1]; Butan-2-ol, 25 C) was 2.14 log10 K and the log K of transfer, water to solvent ([1]; Butanone, 25 C) was 2.66 log10 K. For the same compound, the log K of transfer, water to solvent ([1]; Butyronitrile, 25 C) was 2.6 log10 K, the log K of transfer, water to solvent ([1]; CCl4, 25 C) was 2.61 log10 K and the log K of transfer, water to solvent ([1]; Chlorobenzene, 25 C) was 2.61 log10 K. The log K of transfer, water to solvent ([1]; Chloroform, 25 C) was 2.76 log10 K, the log K of transfer, water to solvent ([1]; Cyclohexane, 25 C) was 2.3 log10 K and the log K of transfer, water to solvent ([1]; Cyclohexanone, 25 C) was 2.67 log10 K. For the same compound, the log K of transfer, water to solvent ([1]; Decan-1-ol, 25 C) was 2 log10 K, the log K of transfer, water to solvent ([1]; Di-n-butyl ether, 25 C) was 2.38 log10 K and the log K of transfer, water to solvent ([1]; Dichloromethane, 25 C) was 2.89 log10 K. The log K of transfer, water to solvent ([1]; Ethanol, 25 C) was 2.15 log10 K, the log K of transfer, water to solvent ([1]; Heptan-1-ol, 25 C) was 2.18 log10 K and the log K of transfer, water to solvent ([1]; Hexadecane, 25 C) was 2.15 log10 K. The log K of transfer, water to solvent ([1]; Hexane, 25 C) was 2.31 log10 K, the log K of transfer, water to solvent ([1]; Methanol, 25 C) was 2.14 log10 K and the log K of transfer, water to solvent ([1]; Octan-1-ol(dry), 25 C) was 2.17 log10 K. The log K of transfer, water to solvent ([1]; Pentan-1-ol, 25 C) was 2.2 log10 K, the log K of transfer, water to solvent ([1]; Propan-1-ol, 25 C) was 2.15 log10 K and the log K of transfer, water to solvent ([1]; Propan-2-ol, 25 C) was 2.04 log10 K. For the same compound, the log K of transfer, water to solvent ([1]; Propionitrile, 25 C) was 2.6 log10 K, the log K of transfer, water to solvent ([1]; Tetrahydrofuran, 25 C) was 2.85 log10 K and the log K of transfer, water to solvent ([1]; Toluene, 25 C) was 2.64 log10 K. For the same compound, the log K of transfer, water to solvent [3] was 2.08 log10 K.
For `C=CCCC`, the log K of transfer, gas to solvent ([2]; 1,2-Dichloroethane, 25 C) is listed as 2.1 log10 K, the log K of transfer, gas to solvent ([2]; Butan-1-ol, 25 C) is listed as 1.94 log10 K and the log K of transfer, gas to solvent ([2]; Butanone, 25 C) is listed as 2.11 log10 K. The log K of transfer, gas to solvent ([2]; Chlorobenzene, 25 C) was 2.21 log10 K, the log K of transfer, gas to solvent ([2]; Cyclohexanone, 25 C) was 2.03 log10 K and the log K of transfer, gas to solvent ([2]; Hexadecane, 25 C) was 2.05 log10 K. For the same compound, the log K of transfer, gas to solvent ([2]; Octan-1-ol, 25 C) was 1.93 log10 K, the log K of transfer, gas to solvent ([2]; Water, 25 C) was -1.23 log10 K and the log K of transfer, water to solvent [3] was 2.8 log10 K.
